The source of these data is patent US10189845B2, “4,6-substituted-pyrazolo[1,5-a]pyrazines as janus kinase inhibitors” (ARRAY BIOPHARMA INC., priority 2014, dated 2019).

Format in all cases: biochemical
One assay has as its target Human Tyk2 kinase domain (Homo sapiens (Human), UniProt P29597). In words: Tyk2 Inhibition Assay (Example A, Omnia kinase fluorescence peptide substrate assay). Conditions: TYK2 Enzyme IC50 1 mM ATP, averaged IC50 ranges. The essentials: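 Omnia Sox-peptide kinetic fluorescence assay (ex 360/em 485 nm, read every 50 s for 45 min) with 1 nM human Tyk2 kinase domain (aa 886–1187, His tag cleaved, baculovirus-expressed), 1 mM ATP, 8 μM Omnia Y12 peptide, in 25 mM HEPES pH 7.4, 10 mM MgCl2, 0.01% Triton X-100, 1 mM DTT, 2% DMSO. IC50 from 4-parameter logistic fit of percent of control.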

In another assay the target is JAK2 (Homo sapiens (Human), UniProt O60674). The experiment in a line: JAK2 Inhibition Assay (Example C, Omnia kinase fluorescence peptide substrate assay). Conditions: JAK2 Enzyme IC50 1 mM ATP, averaged IC50 ranges. From the text: The assays described in Examples A, B, C and D for the determination of Tyk2, JAK1, JAK2 and JAK3 kinase activity, respectively, utilized the Omnia® Kinase fluorescence peptide substrate-based technology (Invitrogen). The specific components of the assay mixture are described in Examples A, B, C and D. In these assays, Mg^2+ is chelated upon phosphorylation of the Omnia peptide by the kinase to form a bridge between the chelation-enhanced fluorophore Sox and the phosphate, resulting in an increase in fluorescence emission at 485 nm when excited at […]. The reactions were therefore read at excitation 360 nm and emission was measured at 485 nm every 50 seconds for 45 minutes using a PerkinElmer EnVision Multilabel Plate Reader.
JAK2, sequence (O60674 whole entry): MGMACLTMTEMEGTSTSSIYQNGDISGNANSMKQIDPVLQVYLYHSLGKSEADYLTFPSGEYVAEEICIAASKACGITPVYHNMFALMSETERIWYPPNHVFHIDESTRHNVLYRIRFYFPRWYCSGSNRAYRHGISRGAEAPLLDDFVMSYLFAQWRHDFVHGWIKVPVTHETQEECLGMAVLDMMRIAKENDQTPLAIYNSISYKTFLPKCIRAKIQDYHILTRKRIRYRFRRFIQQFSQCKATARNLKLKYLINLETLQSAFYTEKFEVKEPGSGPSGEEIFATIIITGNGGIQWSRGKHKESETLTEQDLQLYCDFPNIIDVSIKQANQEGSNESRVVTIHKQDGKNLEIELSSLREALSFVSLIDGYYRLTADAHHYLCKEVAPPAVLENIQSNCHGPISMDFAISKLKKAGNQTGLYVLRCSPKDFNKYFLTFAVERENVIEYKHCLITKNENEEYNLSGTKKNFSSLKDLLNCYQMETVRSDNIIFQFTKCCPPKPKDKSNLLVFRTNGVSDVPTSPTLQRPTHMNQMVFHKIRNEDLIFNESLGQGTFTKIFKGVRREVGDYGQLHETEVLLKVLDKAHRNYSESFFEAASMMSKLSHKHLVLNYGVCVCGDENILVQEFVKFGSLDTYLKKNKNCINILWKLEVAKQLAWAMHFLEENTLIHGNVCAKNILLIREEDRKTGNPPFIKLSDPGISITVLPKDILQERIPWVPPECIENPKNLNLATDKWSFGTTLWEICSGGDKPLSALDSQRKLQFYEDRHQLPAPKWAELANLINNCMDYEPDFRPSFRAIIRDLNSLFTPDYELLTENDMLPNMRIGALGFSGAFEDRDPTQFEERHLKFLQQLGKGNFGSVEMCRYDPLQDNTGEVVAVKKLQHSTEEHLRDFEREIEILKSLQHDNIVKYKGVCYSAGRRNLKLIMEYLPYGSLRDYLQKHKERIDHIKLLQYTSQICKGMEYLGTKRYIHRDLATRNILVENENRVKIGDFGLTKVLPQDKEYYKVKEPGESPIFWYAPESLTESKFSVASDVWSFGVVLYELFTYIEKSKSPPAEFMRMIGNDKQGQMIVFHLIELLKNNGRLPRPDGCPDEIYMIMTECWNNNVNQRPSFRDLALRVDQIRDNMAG
The final buffer conditions for Tyk2, JAK1, JAK2, and JAK3 assays were as follows: 25 mM HEPES, pH 7.4, 10 mM MgCl2, 0.01% Triton X-100 and 1 mM DTT.
Two-μL aliquots of these were transferred to a fresh plate for a ten-fold intermediate dilution with assay buffer. Five-μL aliquots of the diluted compounds were then transferred to 20-μL of assay mixtures described in Examples A, B, C and D for a final concentration of DMSO of 2%. […] For each plate, percent of control (POC) values were calculated for each well according to the following equation: […]
IC50's were estimated from the POC's using a standard 4-parameter logistic model:
The IC50 is defined as the concentration of inhibitor at which the POC equals 50 for the fitted curve.
Compounds of Formula I were screened for their ability to inhibit JAK2 using the general enzyme inhibition assay method, in which the assay mixture contained 1 mM ATP, 10 μM Omnia® Y7 peptide (Catalog # IVGN KNZ3071C, Invitrogen Corporation, Carlsbad, Calif.) and 4 nM JAK2 in a total volume of 25 μL. JAK2 was purchased from Invitrogen Corporation, Carlsbad, Calif. (catalog # IVGN PV4288).

For another assay, the target named is JAK3 (Homo sapiens (Human), UniProt P52333). In words: JAK3 Inhibition Assay (Example D, Omnia kinase fluorescence peptide substrate assay). The essentials: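 Mixture held 2 nM JAK3, 1 mM ATP and 10 μM Omnia Y7 peptide in 25 mM HEPES pH 7.4, 10 mM MgCl2, 0.01% Triton X-100, 1 mM DTT, 2% DMSO final. Sox fluorescence (ex 360/em 485 nm) was read every 50 s for 45 min. IC50 came from a 4-parameter logistic fit of percent of control.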
JAK3, sequence (P52333 whole entry): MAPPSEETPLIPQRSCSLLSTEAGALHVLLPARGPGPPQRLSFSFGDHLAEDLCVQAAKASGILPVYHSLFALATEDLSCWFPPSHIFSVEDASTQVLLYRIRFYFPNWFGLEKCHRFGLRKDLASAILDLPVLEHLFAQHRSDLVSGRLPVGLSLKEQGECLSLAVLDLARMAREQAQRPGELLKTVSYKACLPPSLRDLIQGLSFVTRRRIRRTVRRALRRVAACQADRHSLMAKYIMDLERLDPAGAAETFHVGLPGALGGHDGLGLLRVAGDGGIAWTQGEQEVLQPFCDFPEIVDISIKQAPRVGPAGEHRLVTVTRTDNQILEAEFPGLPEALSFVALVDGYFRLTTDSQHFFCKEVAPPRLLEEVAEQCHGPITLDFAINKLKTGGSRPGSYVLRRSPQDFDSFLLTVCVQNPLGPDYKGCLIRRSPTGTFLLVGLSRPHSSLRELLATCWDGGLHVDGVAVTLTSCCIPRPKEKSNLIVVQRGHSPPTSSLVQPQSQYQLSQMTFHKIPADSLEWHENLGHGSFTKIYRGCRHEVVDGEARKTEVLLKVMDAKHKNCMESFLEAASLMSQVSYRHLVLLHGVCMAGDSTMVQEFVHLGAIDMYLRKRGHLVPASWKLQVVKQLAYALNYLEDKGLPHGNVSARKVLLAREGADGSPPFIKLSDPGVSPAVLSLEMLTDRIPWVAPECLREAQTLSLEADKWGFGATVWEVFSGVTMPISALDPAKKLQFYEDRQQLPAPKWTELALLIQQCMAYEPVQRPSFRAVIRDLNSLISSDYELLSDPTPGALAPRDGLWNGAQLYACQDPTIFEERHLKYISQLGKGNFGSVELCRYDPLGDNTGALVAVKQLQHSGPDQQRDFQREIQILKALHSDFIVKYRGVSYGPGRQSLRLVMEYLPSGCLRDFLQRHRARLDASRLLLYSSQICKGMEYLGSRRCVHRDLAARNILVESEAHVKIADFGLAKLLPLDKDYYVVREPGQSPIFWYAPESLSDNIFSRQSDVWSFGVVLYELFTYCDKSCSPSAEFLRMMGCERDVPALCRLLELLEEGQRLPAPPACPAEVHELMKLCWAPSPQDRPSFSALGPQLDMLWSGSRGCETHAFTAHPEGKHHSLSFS

In the next assay the target is JAK1 (Homo sapiens (Human), UniProt P23458). In words: JAK1 Inhibition Assay (Example B, Omnia kinase fluorescence peptide substrate assay). An outline of the steps:
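Recombinant human JAK1 (12.5 nM) with 1 mM ATP and 8 μM Omnia Y12 Sox-peptide in 25 mM HEPES pH 7.4, 10 mM MgCl2, 0.01% Triton X-100, 1 mM DTT, 2% DMSO final. Phosphorylation read kinetically (ex 360/em 485 nm, 45 min); IC50 from 4-parameter fit of percent of control.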

[1] abbreviates: JAK1 Enzyme IC50 1 mM ATP, 1 mM ATP, averaged IC50 ranges.

pIC50: −log10 of the molar value. Where a name gives a salt, the structure may show the parent alone. Read-outs that look alike come from different tables or passages of the source.

Human Tyk2 kinase domain, sequence (P29597 886-1187): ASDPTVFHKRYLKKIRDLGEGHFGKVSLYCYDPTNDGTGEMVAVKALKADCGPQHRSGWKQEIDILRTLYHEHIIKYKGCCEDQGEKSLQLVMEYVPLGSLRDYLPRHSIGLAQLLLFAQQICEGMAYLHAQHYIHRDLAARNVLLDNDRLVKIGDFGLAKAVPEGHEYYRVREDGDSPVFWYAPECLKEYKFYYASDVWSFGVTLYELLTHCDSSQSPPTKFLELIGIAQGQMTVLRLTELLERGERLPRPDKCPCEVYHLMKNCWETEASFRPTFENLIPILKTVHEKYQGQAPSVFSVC
JAK1, sequence (P23458 whole entry): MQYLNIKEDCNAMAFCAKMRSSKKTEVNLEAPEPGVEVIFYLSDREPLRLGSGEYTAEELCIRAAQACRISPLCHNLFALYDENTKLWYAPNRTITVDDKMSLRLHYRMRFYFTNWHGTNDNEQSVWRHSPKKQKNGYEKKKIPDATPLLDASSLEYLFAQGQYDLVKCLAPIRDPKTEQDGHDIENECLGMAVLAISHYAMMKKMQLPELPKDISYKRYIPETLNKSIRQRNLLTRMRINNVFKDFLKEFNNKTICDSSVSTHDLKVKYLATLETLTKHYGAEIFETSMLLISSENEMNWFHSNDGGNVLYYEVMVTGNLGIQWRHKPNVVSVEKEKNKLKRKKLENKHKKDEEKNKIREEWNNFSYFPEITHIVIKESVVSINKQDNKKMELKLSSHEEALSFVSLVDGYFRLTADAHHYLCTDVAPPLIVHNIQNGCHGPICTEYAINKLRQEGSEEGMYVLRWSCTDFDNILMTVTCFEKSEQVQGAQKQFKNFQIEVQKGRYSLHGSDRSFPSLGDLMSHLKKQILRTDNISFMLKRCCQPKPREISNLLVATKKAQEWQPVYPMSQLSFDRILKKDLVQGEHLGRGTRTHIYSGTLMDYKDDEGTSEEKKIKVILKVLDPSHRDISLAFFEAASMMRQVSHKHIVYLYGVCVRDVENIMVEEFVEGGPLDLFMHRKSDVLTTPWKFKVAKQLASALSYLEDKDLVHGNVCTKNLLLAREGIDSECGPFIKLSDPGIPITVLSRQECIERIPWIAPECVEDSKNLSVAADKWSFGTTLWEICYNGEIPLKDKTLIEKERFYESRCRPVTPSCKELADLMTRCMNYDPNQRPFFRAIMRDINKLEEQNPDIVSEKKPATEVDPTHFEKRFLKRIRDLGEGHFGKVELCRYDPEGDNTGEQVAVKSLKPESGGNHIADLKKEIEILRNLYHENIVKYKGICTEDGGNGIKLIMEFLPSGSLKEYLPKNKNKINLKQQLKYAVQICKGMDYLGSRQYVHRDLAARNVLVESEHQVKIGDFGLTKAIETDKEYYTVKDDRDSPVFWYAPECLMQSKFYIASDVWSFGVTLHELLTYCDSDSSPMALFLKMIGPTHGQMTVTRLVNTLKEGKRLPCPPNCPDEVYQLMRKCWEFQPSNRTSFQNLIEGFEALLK

The term pIC50 denotes the IC50 on a negative log10 scale, so that one unit is a factor of ten. Higher therefore signals a low IC50. Consider `CCC(CC)n1cc(-c2nc(-c3cnn(CCCS(C)(=O)=O)c3)cn3nccc23)cn1` [Example 7, 6-(1-(3-(methylsulfonyl)propyl)-1H-pyrazol-4-yl)-4-(l-(pentan-3-yl)-1H-pyrazol-4-yl)pyrazolo[1,5-a]pyrazine], for which the pIC50 on Human Tyk2 kinase domain was 7.00 to 8.00; on JAK2, 7.00 to 8.00; on JAK3, 5.00 to 6.00; on JAK1, 5.00 to 6.00.
Consider `CCC(CC)n1cc(-c2nc(-c3cnn(CCN(C)S(C)(=O)=O)c3)cn3nccc23)cn1` [Example 9, N-methyl-N-(2-(4-(4-(1-(pentan-3-yl)-1H-pyrazol-4-yl)pyrazolo[1,5-a]pyrazin-6-yl)-1H-pyrazol-1-yl)ethyl)methanesulfonamide], for which the pIC50 is 7.00 to 8.00 at Human Tyk2 kinase domain, 7.00 to 8.00 at JAK2, 5.00 to 6.00 against JAK3 and 6.00 to 7.00 against JAK1 (setting [1]).
Turning to `CCC(CC)n1cc(-c2nc(-c3cnn(CCN(C)C)c3)cn3nccc23)cn1` [Example 10, N,N-dimethyl-2-(4-(4-(1-(pentan-3-yl)-1H-pyrazol-4-yl)pyrazolo[1,5-a]pyrazin-6-yl)-1H-pyrazol-1-yl)ethanamine], the pIC50 at Human Tyk2 kinase domain was 7.00 to 8.00; at JAK2, 7.00 to 8.00; at JAK3, 5.00 to 6.00; against JAK1, 5.00 to 6.00.
With `CCC(CC)n1cc(-c2nc(-c3cnn(CC4CCS(=O)(=O)CC4)c3)cn3nccc23)cn1` [Example 11, 4-((4-(4-(1-(pentan-3-yl)-1H-pyrazol-4-yl)pyrazolo[1,5-a]pyrazin-6-yl)-1H-pyrazol-1-yl)methyl)tetrahydro-2H-thiopyran 1,1-dioxide], the pIC50 against Human Tyk2 kinase domain is 7.00 to 8.00; against JAK2 it was 7.00 to 8.00; on JAK3, 5.00 to 6.00; on JAK1 it was 5.00 to 6.00.
On to `CCC(CC)n1cc(-c2nc(-c3cnn(CCCN(C)C)c3)cn3nccc23)cn1` [Example 12, N,N-dimethyl-3-(4-(4-(1-(pentan-3-yl)-1H-pyrazol-4-yl)pyrazolo[1,5-a]pyrazin-6-yl)-1H-pyrazol-1-yl)propan-1-amine], for which the negative logarithm of the IC50 (pIC50) was 6.00 to 7.00 against Human Tyk2 kinase domain, 6.00 to 7.00 at JAK2, 5.00 to 6.00 on JAK3 and 5.00 to 6.00 against JAK1.
`CCC(CC)n1cc(-c2nc(-c3cnn(C[C@@H](C)CO)c3)cn3nccc23)cn1` [Example 14, (R)-2-methyl-3-(4-(4-(1-(pentan-3-yl)-1H-pyrazol-4-yl)pyrazolo[1,5-a]pyrazin-6-yl)-1H-pyrazol-1-yl)propan-1-ol]: the pIC50 is 7.00 to 8.00 on Human Tyk2 kinase domain, 7.00 to 8.00 on JAK2, 5.00 to 6.00 at JAK3 and 7.00 to 8.00 at JAK1 (setting [1]).
As to `CCC(CC)n1cc(-c2nc(-c3cnn(C[C@H](C)CO)c3)cn3nccc23)cn1` [Example 15, (S)-2-methyl-3-(4-(4-(1-(pentan-3-yl)-1H-pyrazol-4-yl)pyrazolo[1,5-a]pyrazin-6-yl)-1H-pyrazol-1-yl)propan-1-ol], the pIC50 is 7.00 to 8.00 on Human Tyk2 kinase domain, 7.00 to 8.00 at JAK2, 5.00 to 6.00 at JAK3 and 7.00 to 8.00 at JAK1 (setting [1]).
`CCC(CC)n1cc(-c2nc(-c3cnn(CC4(CO)COC4)c3)cn3nccc23)cn1` [Example 16, (3-((4-(4-(1-(pentan-3-yl)-1H-pyrazol-4-yl)pyrazolo[1,5-a]pyrazin-6-yl)-1H-pyrazol-1-yl)methyl)oxetan-3-yl)methanol]: the pIC50 was 7.00 to 8.00 against Human Tyk2 kinase domain, 7.00 to 8.00 against JAK2, 5.00 to 6.00 against JAK3 and 7.00 to 8.00 against JAK1.
Turning to `CCC(CC)n1cc(-c2nc(-c3cnn(C[C@@H]4CCC(=O)N4)c3)cn3nccc23)cn1` [Example 17, (S)-5-((4-(4-(1-(pentan-3-yl)-1H-pyrazol-4-yl)pyrazolo[1,5-a]pyrazin-6-yl)-1H-pyrazol-1-yl)methyl)pyrrolidin-2-one], the pIC50 at Human Tyk2 kinase domain was 7.00 to 8.00; at JAK2 it was 7.00 to 8.00; against JAK3, 5.00 to 6.00; against JAK1, 6.00 to 7.00.
In the case of `CCC(CC)n1cc(-c2nc(-c3cnn(C[C@H]4CCC(=O)N4)c3)cn3nccc23)cn1` [Example 18, (R)-5-((4-(4-(1-(pentan-3-yl)-1H-pyrazol-4-yl)pyrazolo[1,5-a]pyrazin-6-yl)-1H-pyrazol-1-yl)methyl)pyrrolidin-2-one], the pIC50 at Human Tyk2 kinase domain is 7.00 to 8.00; on JAK2, 7.00 to 8.00; at JAK3, 5.00 to 6.00; at JAK1, 7.00 to 8.00.
`CCC(CC)n1cc(-c2nc(-c3cnn(CCCO)c3)cn3nccc23)cn1` [Example 19, 3-(4-(4-(1-(pentan-3-yl)-1H-pyrazol-4-yl)pyrazolo[1,5-a]pyrazin-6-yl)-1H-pyrazol-1-yl)propan-1-ol]: the pIC50 against Human Tyk2 kinase domain, at JAK2, on JAK3 and against JAK1 was 5.00 to 6.00 in each case.
As for `CCC(CC)n1cc(-c2nc(-c3cnn(CCO)c3)cn3nccc23)cn1` [Example 20, 2-(4-(4-(l-(pentan-3-yl)-1H-pyrazol-4-yl)pyrazolo[1,5-a]pyrazin-6-yl)-1H-pyrazol-1-yl)ethanol], the pIC50 against Human Tyk2 kinase domain is 7.00 to 8.00; against JAK2 it was 7.00 to 8.00; at JAK3, 5.00 to 6.00; at JAK1 it was 7.00 to 8.00.
For the molecule `CC[C@@H](C)n1cc(-c2nc(-c3cnn(C4CCS(=O)(=O)CC4)c3)cn3nccc23)cn1` [Example 21, (R)-4-(4-(4-(1-(sec-butyl)-1H-pyrazol-4-yl)pyrazolo[1,5-a]pyrazin-6-yl)-1H-pyrazol-1-yl)tetrahydro-2H-thiopyran 1,1-dioxide], the pIC50 is 6.00 to 7.00 against Human Tyk2 kinase domain, 7.00 to 8.00 against JAK2, 5.00 to 6.00 at JAK3 and 5.00 to 6.00 on JAK1.
Take `CCC(CC)n1cc(-c2nc(-c3cnn(CCS(C)(=O)=O)c3)cn3nccc23)cn1` [Example 22, 6-(1-(2-(methylsulfonyl)ethyl)-1H-pyrazol-4-yl)-4-(1-(pentan-3-yl)-1H-pyrazol-4-yl)pyrazolo[1,5-a]pyrazine]: the pIC50 against Human Tyk2 kinase domain was 7.00 to 8.00; against JAK2, 7.00 to 8.00; on JAK3 it was 5.00 to 6.00; against JAK1 it was 6.00 to 7.00.
For the molecule `CCC(CC)n1cc(-c2nc(-c3cnn(CCS(=O)(=O)N(C)C)c3)cn3nccc23)cn1` [Example 23, N,N-dimethyl-2-(4-(4-(1-(pentan-3-yl)-1H-pyrazol-4-yl)pyrazolo[1,5-a]pyrazin-6-yl)-1H-pyrazol-1-yl)ethanesulfonamide], the pIC50 on Human Tyk2 kinase domain is 7.00 to 8.00; against JAK2 it was 7.00 to 8.00; on JAK3, 5.00 to 6.00; on JAK1 it was 6.00 to 7.00.
As to `CCC(CC)n1cc(-c2nc(-c3cnn(C4CCNCC4)c3)cn3nccc23)cn1` [Example 25, 4-(1-(pentan-3-yl)-1H-pyrazol-4-yl)-6-(1-(piperidin-4-yl)-1H-pyrazol-4-yl)pyrazolo[1,5a]pyrazine hydrochloride], the pIC50 on Human Tyk2 kinase domain is 7.00 to 8.00; against JAK2, 7.00 to 8.00; at JAK3 it was 5.00 to 6.00; on JAK1 it was 6.00 to 7.00.
Turning to `CC(C)n1cc(-c2nc(-c3cnn(C4CCNCC4)c3)cn3nccc23)cn1` [Example 26, 4-(1-isopropyl-1H-pyrazol-4-yl)-6-(1-(piperidin-4-yl)-1H-pyrazol-4-yl)pyrazolo[1,5 a]pyrazine], the pIC50 against Human Tyk2 kinase domain was 6.00 to 7.00; against JAK2 it was 6.00 to 7.00; against JAK3 it was 5.00 to 6.00; against JAK1, 5.00 to 6.00.
Consider `CCC(CC)n1cc(-c2nc(-c3cnn([C@@H]4CCCNC4)c3)cn3nccc23)cn1` [Example 29, (R)-4-(1-(pentan-3-yl)-1H-pyrazol-4-yl)-6-(1-(piperidin-3-yl)-1H-pyrazol-4-yl)pyrazolo[1,5-a]pyrazine], for which the pIC50 at Human Tyk2 kinase domain is 7.00 to 8.00; at JAK2, 7.00 to 8.00; on JAK3, 5.00 to 6.00; at JAK1, 6.00 to 7.00.
